Records with an inconclusive call do not appear. The source made the active and inactive calls. The rule behind the calls is not given here.
system: C. albicans CaCi-8 + fluconazole, Alamar Blue growth, 48 h; assay: resistant C. albicans growth inhibition with fluconazole, dose response, CaCi-8 strain, Alamar Blue fluorescence (AID 2423)

Row | Compound | EC50
1 | Cc1ccc(C(=O)NC(=S)NNC(=O)CC#N)cc1 | > 15000 nM (inactive)
2 | Nc1nnnn1/N=C/c1cccc(Oc2ccccc2)c1 | 3450 nM
3 | O=c1cnnc(N/N=C/c2ccccn2)[nH]1 | 875 nM
4 | CN1c2ccccc2N(C)C1(C)c1ccccc1 | > 15000 nM (inactive)
5 | O=C(NNC(=S)NC(=O)c1ccccc1)c1ccc([N+](=O)[O-])cc1 | 4120 nM
6 | O=C(NNC(=S)NC(=O)c1ccc(Br)cc1)c1ccc([N+](=O)[O-])cc1 | 416 nM
7 | CC(C)(C)c1ccc(C(=O)CC(=O)c2cc(Cl)ccc2O)cc1 | 4770 nM
8 | Cc1ccc(C(=O)NCc2ccco2)cc1S(=O)(=O)Nc1cccc(Cl)c1 | > 15000 nM (inactive)
9 | CCOc1cccc(-c2cc(-c3n[nH]c(=S)n3CC)c3ccccc3n2)c1 | 4000 nM
10 | O=C(NNC(=O)c1ccc2ccccc2c1O)c1ccccc1Cl | 6110 nM
11 | O=C(/C=C1\NC2(CCCC2)Cc2ccccc21)C(=O)N/N=C/c1ccccc1O | 601 nM
12 | O=S(=O)(c1ccc(Cl)cc1)N1CCN(Cc2ccc(O)c3ncccc23)CC1 | 2940 nM
13 | Cc1cc(C)c2ccc(N)nc2c1O | 14100 nM
14 | Cc1ncc(CO)c(/C=N/NC(=S)Nc2ccc(Cl)c(Cl)c2)c1O | 1880 nM
15 | O=c1oc2ccccc2c(O)c1Cc1cc(Cl)c2cccnc2c1O | 2740 nM
16 | COCCSc1nnc(NC(=O)CCS(=O)(=O)c2ccccc2)s1 | 1860 nM
17 | O=C(Oc1c(CN2CCOCC2)cc(Cl)c2cccnc12)c1ccc(F)cc1 | 3110 nM
18 | O=C(Nc1ccc(N=Nc2ccccc2)c(NC(=O)C2CCCO2)c1)C1CCCO1 (stereo not given) | 4770 nM
19 | O=[N+]([O-])c1cc(O)c2ncccc2c1 | 763 nM
20 | COc1ccc(NC(=O)/C(C#N)=C\c2ccc(N3CCOCC3)o2)cc1 | 3760 nM
21 | O=C(CSc1nnc(-c2ccc(Br)cc2)o1)Nc1cccc2ccccc12 | 15600 nM
22 | Cc1c(Cl)c([N+](=O)[O-])nn1Cc1ccc(C(=O)N/N=C\c2cc(Cl)ccc2O)o1 | 1030 nM
23 | CCn1c(Sc2nc(C)nc3scc(-c4cccs4)c23)n[nH]c1=O | 703 nM

Row | Compound | EC50
24 | N#Cc1cc(C#N)c(N2CCN(c3cccc(Cl)n3)CC2)nc1N | 1580 nM
25 | COc1ccc(OC)c(-n2c(CN3CCC(C(N)=O)CC3)nc3ccccc3c2=O)c1 | > 15000 nM (inactive)
26 | COc1ccc(CCNc2ncnc3sc(C)cc23)cc1OC | 1610 nM
27 | CCCCCCCCCCCCCCCC[n+]1cccc(C(=O)N(CC)CC)c1 | 6230 nM
28 | CCC(=O)NC(c1cccs1)c1cc([N+](=O)[O-])c2cccnc2c1O (stereo not given) | 633 nM
29 | Cc1ccc(C2C3=C(CC(C)(C)CC3=O)N=C3c4ccccc4C(=O)C32)cc1 (stereo not given) | 769 nM
30 | CN1CCc2cc3c(c4c2C1Cc1ccccc1-4)OCO3 (stereo not given) | > 15000 nM (inactive)
31 | CN(C)c1ccc(-c2n(C)c3ccccc3[n+]2C)cc1 | 3930 nM
32 | O=C(NC(Nc1nc2ccc([N+](=O)[O-])cc2s1)(C(F)(F)F)C(F)(F)F)c1ccccc1Cl | 1040 nM
33 | CC(C)=CCc1cc2c(=O)c3c(O)c4c(cc3oc2c(O)c1O)OC(C)C4(C)C (stereo not given) | 6360 nM
34 | Cc1ccc(C)c(OC(=O)c2cncc(Br)c2)c1 | > 16000 nM (inactive)
35 | O=C(CCS(=O)(=O)c1ccc(F)cc1)Nc1nc(-c2ccncc2)cs1 | 1490 nM
36 | Cc1c(Nc2scc(-c3ccccc3)[n+]2-c2ccccc2)c(=O)n(-c2ccccc2)n1C | 225 nM
37 | O=C(/C=C/c1cccc(Cl)c1)c1nc2ccccc2[nH]1 | 2580 nM
38 | Oc1ccccc1/C=N/Nc1nccnc1Cl | 1280 nM
39 | CC(=O)N1CCOCCOCCN(C(C)=O)CCOCCOCC1 | > 15000 nM (inactive)
40 | CC(C)c1noc2ncc(C(=O)c3cc(Cl)cc(Cl)c3O)cc12 | 2910 nM
41 | O=C(O)c1ccc(-c2nc(-c3ccc(Cl)cc3)cs2)cc1 | 3420 nM
42 | CN1CCN(C(c2ccc(C(F)(F)F)cc2)c2ccc3cccnc3c2O)CC1 (stereo not given) | 883 nM
43 | Cc1ccc(NC(=O)NNC(=O)c2cc3ccccc3cc2O)c(C)c1 | > 15000 nM (inactive)
44 | O=S(=O)(O)c1cccc2c(N=Nc3ccc(O)c4ncccc34)cccc12 | > 16000 nM (inactive)
45 | CC(C(=O)c1ccccc1)[n+]1cccc(Br)c1 (stereo not given) | > 15000 nM (inactive)

From PubChem BioAssay AID2423 (Broad Institute, 2010)
